Results on twelve compounds are retold here after patent publication EP4711365A1 (Shanghai Hansoh Biomedical Co., Ltd., priority 2023, dated 2024).

By IC50 is commonly meant the midpoint of a concentration-inhibition curve. A high value points to lower potency. The AUC(0-t) is exposure summed from dosing to a finite time, without extrapolation to infinity. The low end stands for low exposure, the high end for high exposure. One may read the Cmax as the highest concentration seen after dosing. In general, Tmax refers to the time at which the peak concentration occurs. Usually half-life stands for how long it takes for the measured level to halve. The low end stands for fast loss, the high end for slow loss.

In data set [1] the test system is Groα secretion by HT-29 cells. Briefly: Inhibition of Groα secretion by HT-29 cells stimulated with IL-17A (ELISA). The conditions noted are these: Homo sapiens, IL-17A 30 ng/ml, Groα in supernatant. Type of data set: cell-based, Human. The method, then:
Test example 2 Assay for inhibitory effect of compounds of the present invention against Groα secretion by HT-29 cells
Experimental objective: to measure the inhibitory effect of the compounds against Groα secretion by HT-29 cells, thereby evaluating the inhibition of the compounds on IL-17A pathway.
Experimental method: A cell suspension at 50,000 cells/ml was prepared, and 200 µl of the cell suspension was added to each well of a 96-well plate, i.e., 10,000 cells/well. The plate was cultured overnight. In the 96-well V-bottom plate, 5 mM compound solution was serially diluted 3-fold using DMSO, and the compound from each well was diluted 100-fold using a complete culture medium. IL-17A protein (R&D, #BT7955-025/CF) with a stock concentration of 100 µg/ml was diluted 333.33-fold using a complete culture medium. The compound and IL-17A were mixed at a volume ratio of 1:1 and incubated at 37°C for 30 minutes. 50 µl of a mixture of the compound and IL-17A was added to cell wells, and the final concentration of IL-17A protein was 30 ng/ml.
The mixture was incubated in a 37°C, 5% CO2 cell culture incubator for 48 hours. The concentration of Groα in the supernatant was determined by ELISA method using Human Groα Valukin Elisa kit (Biotechne, # VAL139), and the absorbance intensity at 450 nm was measured using a microplate reader (PE, EnVision2105). Data were analysed using GraphPad Prism 8.3.0.
Experimental data processing method: Data were analysed using GraphPad Prism 8.3.0.
Inhibition rate% = [(average value of positive control wells - value of sample wells)/(average value of positive control wells - average value of negative control wells)] × 100%, where the sample wells are wells containing cells plus compounds at different concentration gradients, the positive control wells are wells containing cells plus IL-17A, and the negative control wells are wells containing culture medium plus IL-17A.
Curve fitting: The IC50 value was obtained by curve fitting based on the inhibition rate (%) at each concentration using the log(inhibitor) vs. responseVariable slope (four parameters) in GraphPad Prism 6.0, and the calculation equation was Y = Bottom + (Top-Bottom)/(1+10^((LogIC50-X)*HillSlope)).

A short description of data set [2]: Pharmacokinetic assay in Wistar rats, oral. The conditions noted are these: rat, 30 mg/kg.
Protocol: Experimental objective: to study the pharmacokinetic behaviours of the compounds of the present invention in the body (plasma) of Wistar rats as test animals after oral administration at a dose of 30 mg/kg. • 2. Experimental scheme • 2.1 Test drugs: the examples of the present invention, prepared in house. • 2.2 Test animals: Wistar rats (female, 3 rats per group), from Beijing Vital River Laboratory Animal Technology Co., Ltd., with the animal production license no.
Solutol HS15 was melted in a water bath at 50-60°C, and then 50 mL of the melted Solutol HS15 was added to 450 mL of ultrapure water. The mixture was stirred and sonicated to obtain 500 mL of 10% Solutol HS15 solution. The compound was weighed, and according to the total administration volume, 30% PEG solution was first added. The mixture was shaken uniformly and sonicated until a clear solution was obtained. Subsequently, 70% (10% Solutol) in water was added, resulting in a colourless and clear solution with a concentration of 3.0 mg/mL.
2.4 Administration scheme: After overnight fasting, 3 female Wistar rats per group were administered orally (PO) at a dose of 30 mg/kg with an administration volume of 10 mL/kg.
• 1) To 50 uL of plasma sample was added 250 uL of acetonitrile for precipitation, and the mixture was mixed and then centrifuged at 4°C at 4000 rpm for 20 minutes. • 2) The treated supernatant solution was taken and subjected to LC/MS/MS to analyse the concentration of the test compounds. LC/MS/MS analysis instrument: AB Sciex API-4000 Qtrap-Shimadzu Controller-CBM20A.
• Chromatographic column: Waters Xbridge C18 3.5 um 2.1*50 mm • Mobile phase: solution A: 0.1% formic acid in water, and solution B: 0.1% formic acid in acetonitrile • Flow rate: 0.6 mL/min • Elution time: 0-3.5 minutes, with eluents as follows:

`[2H]C([2H])([2H])C([2H])([2H])n1nccc1C(=O)NC(C(=O)Nc1ncc(C(COC)n2cc(Cl)ccc2=O)s1)C1CCC(C)CC1` (stereo not drawn) [Example 586]: the IC50 in data set [1] (HT-29, 48 h) stood at 8.1 nM. Besides, in data set [2] (in vivo), the AUC(0-t) came to 15300 ng·h/mL, the Cmax is 1750 ng/mL, the Tmax was 2 h and the half-life was 4.3 h.
Consider `[2H]C([2H])([2H])C([2H])([2H])n1nccc1C(=O)NC(C(=O)Nc1ncc(C(COC)N2CC(F)(F)CCC2=O)s1)C1CCC(C)CC1` [Example 613, N-((S)-2-((5-((R)-1-(5,5-difluoro-2-carbonylpiperidin-1-yl)-2-methoxyethyl)thiazol-2-yl)amino)-1-((1r,4S)-4-methylcyclohexyl)-2-carbonylethyl)-1-(ethyl-d5)-1H-pyrazole-5-carboxamide], for which the IC50 in data set [1] (48 hours) was 5.6 nM. In data set [2] (plasma), the AUC(0-t) amounted to 21000 ng·h/mL, the Cmax is 3300 ng/mL, the Tmax stood at 2 h and the half-life was 2.6 h.
On the same counts, the results for `[2H]C([2H])([2H])C([2H])([2H])n1nccc1C(=O)N[C@H](C(=O)Nc1ncc([C@@H](CN2CCOCC2)N2CC(F)(F)CCC2=O)s1)[C@H]1CC[C@H](C)CC1` [Example 624, N-((S)-2-((5-((R)-1-(5,5-difluoro-2-oxopiperidin-1-yl)-2-morpholinoethyl)thiazol-2-yl)amino)-1-((1r,4S)-4-methylcyclohexyl)-2-oxoethyl)-1-(ethyl-d5)-1H-pyrazole-5-carboxamide] are 4.3 nM, 11000 ng·h/mL, 3400 ng/mL, 1 h and 1 h.
`CCn1nccc1C(=O)N[C@H](C(=O)Nc1ncc([C@@H](CN2CCC3(CC2)OCCO3)n2cc(Cl)ccc2=O)s1)[C@H]1CC[C@H](C)CC1` [Example 1020] gave an IC50 in data set [1] (HT-29, 48 h) of 2.5 nM.
For `CCn1nccc1C(=O)N[C@H](C(=O)Nc1ncc([C@@H](CN2CCCCC2)N2CC(F)(F)CCC2=O)s1)[C@H]1CC[C@H](C)CC1` [Example 1021], in data set [1] (HT-29, 48 h), the IC50 was determined as 8.5 nM.
In turn, `CCn1nccc1C(=O)N[C@H](C(=O)Nc1ncc([C@@H](CN2CCCC2)N2CC(F)(F)CCC2=O)s1)[C@H]1CC[C@H](C)CC1` [Example 1022] yielded an IC50 in data set [1] (HT-29, 48 h) of 10 nM.
Still for that read-out and setting: under `CCn1nccc1C(=O)N[C@H](C(=O)Nc1ncc([C@@H](CN(C)CCOC)N2CC(F)(F)CCC2=O)s1)[C@H]1CC[C@H](C)CC1` [Example 1023] stands 10 nM.
Same read-out and setting: with `COCCN(C)C[C@H](c1cnc(NC(=O)[C@@H](NC(=O)c2ccnn2C)[C@H]2CC[C@H](C)CC2)s1)N1CC(F)(F)CCC1=O` [Example 1024] the figure was 7 nM; with `[2H]C([2H])([2H])n1nccc1C(=O)N[C@H](C(=O)Nc1ncc([C@@H](CN2CCOCC2)N2CC(F)(F)CCC2=O)s1)[C@H]1CC[C@H](C)CC1` [Example 1030], 7 nM; with `[2H]C([2H])([2H])n1nccc1C(=O)N[C@H](C(=O)Nc1ncc([C@@H](CN2CCC3(COC3)C2)N2CC(F)(F)CCC2=O)s1)[C@H]1CC[C@H](C)CC1` [Example 1032], 8 nM.
On the same count and under the same terms, with `[2H]C([2H])([2H])C([2H])([2H])n1nccc1C(=O)N[C@H](C(=O)Nc1ncc([C@@H](CN2CCC3(CCOC3)CC2)N2CC(F)(F)CCC2=O)s1)[C@H]1CC[C@H](C)CC1` [Example 1034] the figure was 6 nM; with `CCn1nccc1C(=O)N[C@H](C(=O)Nc1ncc([C@@H](CN2CCC(COC)CC2)N2CC(F)(F)CCC2=O)s1)[C@H]1CC[C@H](C)CC1` [Example 1036], 6 nM.
